pIC50, pKi: −log10 of the molar value. Read-outs that look alike come from different tables or passages of the source.

The target of one experiment is p110α (PI3Kα) (Homo sapiens, UniProt P42336). Put plainly: Determination of kinetic constants (kinact, Ki) for p110α by LanthaScreen Technology. The class given is binding. To be noted: for kinact: read-out: kinact PI3Kα; for kinact/KI: read-out: kinact/Ki PI3Kα. In general terms: Time-resolved FRET reads energy transfer from a long-lived donor to a nearby acceptor.
Experiment [1] relates to pSer473 of PKB/Akt in SKOV3 cells. Put plainly: In Cell Western cellular PI3K signaling and IC50 determination. Type of experiment: cell-based. Conditions: Homo sapiens. The protocol: Protein phosphorylation was detected as follows: pSer473 of PKB/Akt with rabbit polyclonal antibody from Cell Signaling Technology (CST) (#4058) by In-Cell Western assays, where 1.2×10^4 SKOV3 cells/well in 96-well plates were plated (Cell Carrier, PerkinElmer) for 24 hours (37° C., 5% CO2), as described in Ref. ^25.

Experiment [2] is described as follows: Intrinsic reactivity of the inhibitors (kchem) with βME measured with HPLC. Type of experiment: physicochemical. Conditions: 1 mM inhibitor + 600 mM βME, n = 3.
Where [3] appears, read: dissociation constant of the first reversible binding, global fitting with KinTek, read-out: Ki PI3Kα.
Setting [4] is: maximum potential rate of covalent bond formation, global fitting with KinTek.
The mark [5] stands for this setting: SK-OV-3, SKOV3 cells, 2 or 3 independent measurements, read-out: IC50 pPKB (S473) SKOV3.
[6] abbreviates: SK-OV-3, read-out: IC50 pPKB (S473) SKOV3.

p110α (PI3Kα), sequence (P42336 whole entry): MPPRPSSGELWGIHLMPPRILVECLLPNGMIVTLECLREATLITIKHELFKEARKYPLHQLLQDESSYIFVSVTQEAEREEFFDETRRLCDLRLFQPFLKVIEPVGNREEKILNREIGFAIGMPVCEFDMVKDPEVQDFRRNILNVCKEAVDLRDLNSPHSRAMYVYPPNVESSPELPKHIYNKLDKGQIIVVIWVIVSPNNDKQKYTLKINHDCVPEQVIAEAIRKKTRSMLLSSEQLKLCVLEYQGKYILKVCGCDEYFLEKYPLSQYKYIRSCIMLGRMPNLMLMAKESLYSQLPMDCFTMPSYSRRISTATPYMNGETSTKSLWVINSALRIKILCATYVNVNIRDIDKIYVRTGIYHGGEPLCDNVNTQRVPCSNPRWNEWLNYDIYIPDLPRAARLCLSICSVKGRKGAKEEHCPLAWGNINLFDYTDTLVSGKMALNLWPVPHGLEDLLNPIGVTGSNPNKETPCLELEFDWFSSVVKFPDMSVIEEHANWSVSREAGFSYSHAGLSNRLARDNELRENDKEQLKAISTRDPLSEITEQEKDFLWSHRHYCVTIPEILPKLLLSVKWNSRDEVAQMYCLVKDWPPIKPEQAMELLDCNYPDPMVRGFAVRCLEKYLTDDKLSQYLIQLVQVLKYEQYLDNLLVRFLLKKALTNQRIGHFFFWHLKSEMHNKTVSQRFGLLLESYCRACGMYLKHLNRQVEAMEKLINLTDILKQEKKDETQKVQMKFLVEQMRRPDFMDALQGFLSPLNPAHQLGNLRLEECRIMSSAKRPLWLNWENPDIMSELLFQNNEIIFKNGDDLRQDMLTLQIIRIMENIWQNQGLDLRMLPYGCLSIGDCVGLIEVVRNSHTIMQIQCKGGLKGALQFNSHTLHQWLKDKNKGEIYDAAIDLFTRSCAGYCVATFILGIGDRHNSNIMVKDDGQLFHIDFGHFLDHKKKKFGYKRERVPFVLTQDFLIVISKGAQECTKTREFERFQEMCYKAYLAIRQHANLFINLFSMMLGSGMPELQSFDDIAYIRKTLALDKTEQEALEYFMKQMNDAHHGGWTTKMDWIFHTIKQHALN
p110α (PI3Kα), sequence (P27986 whole entry partner): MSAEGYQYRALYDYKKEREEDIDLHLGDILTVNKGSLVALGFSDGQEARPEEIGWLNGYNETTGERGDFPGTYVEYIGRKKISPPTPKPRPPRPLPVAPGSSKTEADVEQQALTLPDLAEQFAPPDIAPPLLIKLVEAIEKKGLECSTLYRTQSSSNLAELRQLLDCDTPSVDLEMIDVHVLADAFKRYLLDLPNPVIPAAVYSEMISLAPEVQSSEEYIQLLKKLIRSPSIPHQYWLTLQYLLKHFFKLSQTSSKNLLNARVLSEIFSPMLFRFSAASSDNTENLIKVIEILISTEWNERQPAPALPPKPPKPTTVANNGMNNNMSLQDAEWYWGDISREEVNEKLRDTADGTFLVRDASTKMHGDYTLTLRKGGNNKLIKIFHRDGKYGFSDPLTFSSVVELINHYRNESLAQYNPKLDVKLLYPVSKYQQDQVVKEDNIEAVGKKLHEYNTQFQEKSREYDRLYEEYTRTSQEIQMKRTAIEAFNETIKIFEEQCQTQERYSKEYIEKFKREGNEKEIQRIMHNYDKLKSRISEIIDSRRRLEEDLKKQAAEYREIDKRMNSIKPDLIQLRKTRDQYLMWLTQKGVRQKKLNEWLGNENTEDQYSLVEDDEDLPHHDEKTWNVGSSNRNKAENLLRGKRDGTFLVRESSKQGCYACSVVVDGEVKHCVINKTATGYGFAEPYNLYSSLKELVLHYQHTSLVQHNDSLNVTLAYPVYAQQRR
Protocol for p110α (PI3Kα): Maximum potential rate of covalent bond formation (kinact) and dissociation constant of the first reversible binding (Ki) of compounds for p110α were determined by LanthaScreen Technology (Life Technologies). The calculation of kinetic parameters was carried out through global fitting for numerical integration by using KinTek Global Kinetic Explorer modelling software^26-31.

Usually pKi stands for −log10 of the Ki, conventionally taken in molar units. As a reminder, the kinact is the maximal first-order rate at which the target is inactivated. The pIC50 is the IC50 on a negative log10 scale, so that one unit is a factor of ten. As for `C=CC(=O)N1CCC(C(=O)NCCCC(=O)N2CCN(c3nc(-c4cnc(N)nc4C(F)F)nc(N4CCOCC4)n3)CC2)CC1` [Compound 51, 1-acryloyl-N-(4-(4-(4-(2-amino-4-(difluoromethyl)pyrimidin-5-yl)-6-morpholino-1,3,5-triazin-2-yl)piperazin-1-yl)-4-oxobutyl)piperidine-4-carboxamide], at p110α (PI3Kα) (setting [3]), the pKi is 7.97. The kinact on p110α (PI3Kα) (setting [4]) came out at 0.000195 s⁻¹. For the same compound, the kinact/KI at p110α (PI3Kα) amounted to 18800 M⁻¹ s⁻¹. Further, the pIC50 in experiment [1] (setting [5]) was 6.16. Besides, the “kchem (intrinsic reactivity of the inhibitors)” value in experiment [2] is 0.000437 M⁻¹ s⁻¹.
Turning to `C=CC(=O)N1CCC(C(=O)NCC(=O)N2CCN(c3nc(-c4cnc(N)nc4C(F)F)nc(N4CCOCC4)n3)CC2)CC1` [Compound 43, 1-acryloyl-N-(2-(4-(4-(2-amino-4-(difluoromethyl)pyrimidin-5-yl)-6-morpholino-1,3,5-triazin-2-yl)piperazin-1-yl)-2-oxoethyl)piperidine-4-carboxamide], the pIC50 in experiment [1] (setting [6]) was 7.09. The “kchem (intrinsic reactivity of the inhibitors)” value in experiment [2] was 0.00037 M⁻¹ s⁻¹.
In the case of `C=CC(=O)N1CCC(C(=O)N(C)CCC(=O)N2CCN(c3nc(-c4cnc(N)nc4C(F)F)nc(N4CCOCC4)n3)CC2)CC1` [Compound 57, 1-acryloyl-N-(3-(4-(4-(2-amino-4-(difluoromethyl)pyrimidin-5-yl)-6-morpholino-1,3,5-triazin-2-yl)piperazin-1-yl)-3-oxopropyl)-N-methylpiperidine-4-carboxamide], the pKi at p110α (PI3Kα) (setting [3]) is 7.84. Moreover, on p110α (PI3Kα) (setting [4]), the maximal inactivation rate constant (kinact) came to 0.000378 s⁻¹. The kinact/KI on p110α (PI3Kα) amounted to 26100 M⁻¹ s⁻¹. Also, in experiment [1] (setting [5]), the pIC50 is 6.60. In addition, the “kchem (intrinsic reactivity of the inhibitors)” value in experiment [2] worked out at 0.000388 M⁻¹ s⁻¹.
Regarding `C/C=C/C(=O)CCCCCC(=O)N1CCN(c2nc(-c3cnc(N)nc3C(F)F)nc(N3CCOCC3)n2)CC1` [Compound 21, (E)-1-(4-(4-(2-amino-4-(difluoromethyl)pyrimidin-5-yl)-6-morpholino-1,3,5-triazin-2-yl)piperazin-1-yl)dec-8-ene-1,7-dione], the pKi at p110α (PI3Kα) (setting [3]) is 7.93. The kinact at p110α (PI3Kα) (setting [4]) stood at 0.016 s⁻¹. Besides, on p110α (PI3Kα), the kinact/KI is 1.27e+06 M⁻¹ s⁻¹. For the same compound, in experiment [1] (setting [5]), the pIC50 is 7.35. Further, in experiment [2], the “kchem (intrinsic reactivity of the inhibitors)” value came to 0.0632 M⁻¹ s⁻¹.
The corresponding values for `CN(C)C/C=C/C(=O)N1CCC(C(=O)N(C)CCC(=O)N2CCN(c3nc(-c4cnc(N)nc4C(F)F)nc(N4CCOCC4)n3)CC2)CC1` [Compound 58, (E)-N-(3-(4-(4-(2-amino-4-(difluoromethyl)pyrimidin-5-yl)-6-morpholino-1,3,5-triazin-2-yl)piperazin-1-yl)-3-oxopropyl)-1-(4-(dimethylamino)but-2-enoyl)-N-methylpiperidine-4-carboxamide] are 7.91, 0.000406 s⁻¹, 33600 M⁻¹ s⁻¹, 6.59 and 0.000386 M⁻¹ s⁻¹.
With `C=CC(=O)N1CCC(C(=O)NCCC(=O)N2CCN(c3nc(-c4cnc(N)nc4C(F)F)nc(N4CCOCC4)n3)CC2)CC1` [Compound 48, 1-acryloyl-N-(3-(4-(4-(2-amino-4-(difluoromethyl)pyrimidin-5-yl)-6-morpholino-1,3,5-triazin-2-yl)piperazin-1-yl)-3-oxopropyl)piperidine-4-carboxamide], the pKi on p110α (PI3Kα) (setting [3]) was 7.85. At p110α (PI3Kα) (setting [4]), the kinact is 0.000253 s⁻¹. Further, the kinact/KI at p110α (PI3Kα) was 18000 M⁻¹ s⁻¹. The pIC50 in experiment [1] (setting [5]) is 6.18. The “kchem (intrinsic reactivity of the inhibitors)” value in experiment [2] turned out to be 0.000452 M⁻¹ s⁻¹.
The corresponding values for `C/C=C/C(=O)CCCCC(=O)N1CCN(c2nc(-c3cnc(N)nc3C(F)F)nc(N3CCOCC3)n2)CC1` [Compound 2, (E)-1-(4-(4-(2-amino-4-(difluoromethyl)pyrimidin-5-yl)-6-morpholino-1,3,5-triazin-2-yl)piperazin-1-yl)non-7-ene-1,6-dione] are 8.24, 0.00392 s⁻¹, 693000 M⁻¹ s⁻¹, 7.33 and 0.0857 M⁻¹ s⁻¹.
With `C=CC(=O)N(C)CCCC(=O)N1CCN(c2nc(-c3cnc(N)nc3C(F)F)nc(N3CCOCC3)n2)CC1` [Compound 7, N-(4-(4-(4-(2-amino-4-(difluoromethyl)pyrimidin-5-yl)-6-morpholino-1,3,5-triazin-2-yl)piperazin-1-yl)-4-oxobutyl)-N-methylacrylamide], the pKi at p110α (PI3Kα) (setting [3]) is 8.14. For the same compound, at p110α (PI3Kα), the kinact is 6.9e-05 s⁻¹ and the kinact/KI turned out to be 9600 M⁻¹ s⁻¹. For the same compound, the “kchem (intrinsic reactivity of the inhibitors)” value in experiment [2] came out at 0.000228 M⁻¹ s⁻¹.
`C=CC(=O)N1CCC(C(=O)N(C)CC(=O)N2CCN(c3nc(-c4cnc(N)nc4C(F)F)nc(N4CCOCC4)n3)CC2)CC1` [Compound 54, 1-acryloyl-N-(2-(4-(4-(2-amino-4-(difluoromethyl)pyrimidin-5-yl)-6-morpholino-1,3,5-triazin-2-yl)piperazin-1-yl)-2-oxoethyl)-N-methylpiperidine-4-carboxamide]: in experiment [1] (setting [6]), the pIC50 is 7.07. Further, the “kchem (intrinsic reactivity of the inhibitors)” value in experiment [2] was determined as 0.000354 M⁻¹ s⁻¹.
With `C/C=C/C(=O)CCCC(=O)N1CCN(c2nc(-c3cnc(N)nc3C(F)F)nc(N3CCOCC3)n2)CC1` [Compound 20, (E)-1-(4-(4-(2-amino-4-(difluoromethyl)pyrimidin-5-yl)-6-morpholino-1,3,5-triazin-2-yl)piperazin-1-yl)oct-6-ene-1,5-dione], the pKi at p110α (PI3Kα) (setting [3]) was 8.17. Moreover, at p110α (PI3Kα) (setting [4]), the kinact amounted to 0.00121 s⁻¹. The kinact/KI on p110α (PI3Kα) was 183000 M⁻¹ s⁻¹. Besides, the pIC50 in experiment [1] (setting [5]) is 7.41. The “kchem (intrinsic reactivity of the inhibitors)” value in experiment [2] came out at 0.0806 M⁻¹ s⁻¹.
`C=CC(=O)N1CCC(Cc2ccc(C(=O)N3CCN(c4nc(-c5cnc(N)nc5C(F)F)nc(N5CCOCC5)n4)CC3)cc2)CC1` [Compound 100, 1-(4-(4-(4-(4-(2-amino-4-(difluoromethyl)pyrimidin-5-yl)-6-morpholino-1,3,5-triazin-2-yl)piperazine-1-carbonyl)benzyl)piperidin-1-yl)prop-2-en-1-one]: the pKi at p110α (PI3Kα) (setting [3]) is 8.04. For the same compound, the kinact on p110α (PI3Kα) (setting [4]) was 0.000123 s⁻¹. The kinact/KI at p110α (PI3Kα) came out at 13700 M⁻¹ s⁻¹. For the same compound, in experiment [1] (setting [5]), the pIC50 was 7.25. The “kchem (intrinsic reactivity of the inhibitors)” value in experiment [2] came out at 0.000324 M⁻¹ s⁻¹.
Consider `CC(C)=CC(=O)CCCCC(=O)N1CCN(c2nc(-c3cnc(N)nc3C(F)F)nc(N3CCOCC3)n2)CC1` [Compound 5, 1-(4-(4-(2-amino-4-(difluoromethyl)pyrimidin-5-yl)-6-morpholino-1,3,5-triazin-2-yl)piperazin-1-yl)-8-methylnon-7-ene-1,6-dione], for which the pKi on p110α (PI3Kα) (setting [3]) is 8.00. Moreover, the kinact at p110α (PI3Kα) (setting [4]) was determined as 0.000187 s⁻¹. Besides, the kinact/KI at p110α (PI3Kα) is 18700 M⁻¹ s⁻¹. Besides, in experiment [1] (setting [5]), the pIC50 was 7.28. For the same compound, in experiment [2], the “kchem (intrinsic reactivity of the inhibitors)” value was 0.00022 M⁻¹ s⁻¹.
Take `C/C=C/C(=O)N(C)CCCC(=O)N1CCN(c2nc(-c3cnc(N)nc3C(F)F)nc(N3CCOCC3)n2)CC1` [Compound 9, (E)-N-(4-(4-(4-(2-amino-4-(difluoromethyl)pyrimidin-5-yl)-6-morpholino-1,3,5-triazin-2-yl)piperazin-1-yl)-4-oxobutyl)-N-methylbut-2-enamide]: the negative logarithm of the Ki (pKi) on p110α (PI3Kα) (Ki value determined after 60 min of drug incubation with PI3Kα, 2 independent measurements, read-out: Ki PI3Kα (footnote d)) was 8.27. In addition, the “kchem (intrinsic reactivity of the inhibitors)” value in experiment [2] was determined as 3.35e-06 M⁻¹ s⁻¹.
On to `CC(C)=CC(=O)CCCC(=O)N1CCN(c2nc(-c3cnc(N)nc3C(F)F)nc(N3CCOCC3)n2)CC1` [Compound 23, 1-(4-(4-(2-amino-4-(difluoromethyl)pyrimidin-5-yl)-6-morpholino-1,3,5-triazin-2-yl)piperazin-1-yl)-7-methyloct-6-ene-1,5-dione], for which the pKi on p110α (PI3Kα) (setting [3]) was 8.09. Further, on p110α (PI3Kα) (setting [4]), the kinact was 2.56e-05 s⁻¹. Also, the kinact/KI at p110α (PI3Kα) stood at 3210 M⁻¹ s⁻¹. Further, the “kchem (intrinsic reactivity of the inhibitors)” value in experiment [2] stood at 0.000224 M⁻¹ s⁻¹.
Regarding `CC(C)=CC(=O)CCC(=O)N1CCN(c2nc(-c3cnc(N)nc3C(F)F)nc(N3CCOCC3)n2)CC1` [Compound 22, 1-(4-(4-(2-amino-4-(difluoromethyl)pyrimidin-5-yl)-6-morpholino-1,3,5-triazin-2-yl)piperazin-1-yl)-6-methylhept-5-ene-1,4-dione], the kinact at p110α (PI3Kα) (setting [4]) came out at 1.13e-05 s⁻¹. Moreover, the “kchem (intrinsic reactivity of the inhibitors)” value in experiment [2] stood at 0.000188 M⁻¹ s⁻¹.
Regarding `CC(C)=CC(=O)CCCCCC(=O)N1CCN(c2nc(-c3cnc(N)nc3C(F)F)nc(N3CCOCC3)n2)CC1` [Compound 24, 1-(4-(4-(2-amino-4-(difluoromethyl)pyrimidin-5-yl)-6-morpholino-1,3,5-triazin-2-yl)piperazin-1-yl)-9-methyldec-8-ene-1,7-dione], the pIC50 in experiment [1] (setting [5]) was 7.05. Also, in experiment [2], the “kchem (intrinsic reactivity of the inhibitors)” value stood at 0.000173 M⁻¹ s⁻¹.
As to `C=CC(=O)NCCCC(=O)N1CCN(c2nc(-c3cnc(N)nc3C(F)F)nc(N3CCOCC3)n2)CC1` [Compound 13, N-(4-(4-(4-(2-amino-4-(difluoromethyl)pyrimidin-5-yl)-6-morpholino-1,3,5-triazin-2-yl)piperazin-1-yl)-4-oxobutyl)acrylamide], the pKi at p110α (PI3Kα) (setting [3]) is 8.27. Besides, the inactivation rate constant (kinact) on p110α (PI3Kα) (setting [4]) came out at 7.6e-05 s⁻¹. For the same compound, the kinact/KI at p110α (PI3Kα) stood at 14200 M⁻¹ s⁻¹. Also, the “kchem (intrinsic reactivity of the inhibitors)” value in experiment [2] is 0.000138 M⁻¹ s⁻¹.

The values are drawn from patent US20240217960A1, “TRIAZINE DERIVATIVE AS COVALENT INHIBITORS OF PI3K” (UNIVERSITÄT BASEL, priority 2021, published 2024).
